Assays:
[1] = Inhibition of PKA
Focal adhesion kinase 1 = Focal adhesion kinase 1 (Homo sapiens, UniProt Q05397); experiment: Inhibition of FAK
[2] = AUC (0 to infinity) in Sprague-Dawley rat at 50 mg/kg, po; type: ADME, organism-based; design: dose 50 mg/kg, route oral, time infinity; conditions: plasma
Mus musculus [3] = experiment: Increase in blood glucose level in CD1 mouse at 50 mg/kg, po for 14 days; type: functional
[4] = Inhibition of proliferation of human Colo699 cells; type: functional; conditions: COLO 699
[5] = Inhibition of RON at 100 uM
[6] = Cmax in Beagle dog at 5 mg/kg, po; type: ADME, organism-based, Canis lupus familiaris; design: dose 5 mg/kg, route oral; conditions: in vivo
HT-29 [7] = experiment: Inhibition of proliferation of human HT29 cells; type: functional, cell-based
[8] = target: Tyrosine-protein kinase Fes/Fps (Homo sapiens, UniProt P07332); experiment: Inhibition of FES
[9] = Oral bioavailability in Beagle dog at 5 mg/kg; type: ADME, organism-based, Canis lupus familiaris; conditions: in vivo
[10] = Clearance in Sprague-Dawley rat at 1 mg/kg, iv; type: ADME, organism-based; design: dose 1 mg/kg, route intravenous; conditions: in vivo
[11] = Inhibition of CDK2/cyclin E
[12] = target: Tyrosine-protein kinase ABL1 (Homo sapiens, UniProt P00519); experiment: Inhibition of Abl
[13] = AUC (0 to infinity) in CD1 mouse at 25 mg/kg, po; type: ADME, organism-based; design: time infinity, dose 25 mg/kg, route oral; conditions: plasma
[14] = Induction of DNA fragmentation in human GEO cells at 10 uM relative to control; type: functional
NIH3T3 [15] = experiment: Antitumor activity in IGFR expressing mouse 3T3 cells xenografted nu/nu CD1 mouse at 75 mg/kg, po administered once daily for 14 days; type: functional; conditions: CD1, NIH3T3, 336 h, read-out: TGI
NIH3T3 [16] = experiment: Inhibition of IGF1-induced proliferation of human IGF1R expressing mouse 3T3 cells; type: functional, cell-based
NCI-H358 [17] = experiment: Inhibition of proliferation of human H358 cells; type: functional, cell-based
NIH3T3 [18] = experiment: Antiproliferative activity against human IGF1R expressing mouse 3T3 cells; type: functional, cell-based
[19] = Inhibition of proliferation of human GEO cells; type: functional, cell-based
[20] = Plasma concentration in Beagle dog at 5 mg/kg, po after 24 hrs; type: ADME, organism-based, Canis lupus familiaris; design: dose 5 mg/kg, route oral
[21] = Plasma concentration in Sprague-Dawley rat at 50 mg/kg, po after 24 hrs; type: ADME, organism-based; design: dose 50 mg/kg, route oral
[22] = target: Protein kinase C alpha type (Homo sapiens, UniProt P17252); experiment: Inhibition of PKCalpha
[23] = target: Tyrosine-protein kinase Fyn (Homo sapiens, UniProt P06241); experiment: Inhibition of FYN
[24] = target: Rho-associated protein kinase 2 (Homo sapiens, UniProt O75116); experiment: Inhibition of Rock2
[25] = Cmax in CD1 mouse at 25 mg/kg, po; type: ADME, organism-based; design: dose 25 mg/kg, route oral; conditions: in vivo
Cytochrome P450 3A4 = Cytochrome P450 3A4 (Homo sapiens, UniProt P08684); experiment: Inhibition of CYP3A4; type: ADME
Mus musculus [26] = experiment: Increase in blood glucose level in CD1 mouse at 100 mg/kg, po for 14 days; type: functional
HT-29 [27] = experiment: Induction of DNA fragmentation in human HT29 cells at 10 uM relative to control; type: functional
NIH3T3 [28] = experiment: Antitumor activity in IGFR expressing mouse 3T3 cells xenografted nu/nu CD1 mouse at 25 mg/kg, po administered once daily for 14 days; type: functional; conditions: CD1, NIH3T3, 336 h, read-out: TGI
[29] = target: Mitogen-activated protein kinase 1 (Mus musculus) (UniProt P63085); experiment: Inhibition of IGF1-stimulated purified ERK2 phosphorylation in mouse 3T3 cells; type: cell-based; conditions: NIH3T3
Insulin receptor = Insulin receptor (Homo sapiens, UniProt P06213); experiment: Inhibition of human purified insulin receptor in biochemical assay at 100 uM ATP
[30] = target: Platelet-derived growth factor receptor beta (Homo sapiens, UniProt P09619); experiment: Inhibition of PDGFRbeta
Mus musculus [31] = experiment: Effect on plasma insulin level in CD1 mouse at 50 mg/kg, po after 4 hrs; type: functional
[32] = Clearance in CD1 mouse at 5 mg/kg, iv; type: ADME, organism-based; design: dose 5 mg/kg, route intravenous; conditions: in vivo
[33] = target: Fibroblast growth factor receptor 3 (Homo sapiens, UniProt P22607); experiment: Inhibition of FGFR3
[34] = Volume of distribution at steady state in Beagle dog at 2.5 mg/kg, iv; type: ADME, organism-based, Canis lupus familiaris; design: dose 2.5 mg/kg, route intravenous; conditions: in vivo, read-out: Vdss
[35] = Induction of DNA fragmentation in human H292 cells at 10 uM relative to control; type: functional
Mus musculus [36] = experiment: Effect on blood glucose level in CD1 mouse at 25 mg/kg, po for 14 days; type: functional
[37] = Oral bioavailability in Sprague-Dawley rat at 50 mg/kg; type: ADME, organism-based; conditions: in vivo
[38] = Volume of distribution at steady state in CD1 mouse at 5 mg/kg, iv; type: ADME, organism-based; design: dose 5 mg/kg, route intravenous; conditions: in vivo, read-out: Vdss
Mus musculus [39] = experiment: Effect on plasma insulin level in CD1 mouse at 25 mg/kg, po after 4 hrs; type: functional
[40] = target: T1, Insulin-like growth factor 1 receptor (Homo sapiens, UniProt P08069)
Description: Inhibition of human recombinant full length IGF1R expressed in mouse 3T3 cells

[41] = Oral bioavailability in CD1 mouse at 25 mg/kg; type: ADME, organism-based; conditions: in vivo
[42] = Half life in Sprague-Dawley rat at 1 mg/kg, iv; type: ADME, organism-based; design: dose 1 mg/kg, route intravenous; conditions: in vivo
[43] = AUC (0 to infinity) in Beagle dog at 5 mg/kg, po; type: ADME, organism-based, Canis lupus familiaris; design: time infinity, dose 5 mg/kg, route oral; conditions: plasma
Mus musculus [44] = experiment: Effect on plasma insulin level in CD1 mouse at 100 mg/kg, po after 4 hrs; type: functional
[45] = target: Inhibitor of nuclear factor kappa-B kinase subunit beta (Homo sapiens, UniProt O14920); experiment: Inhibition of IKK-beta
[46] = Half life in Beagle dog at 2.5 mg/kg, iv; type: ADME, organism-based, Canis lupus familiaris; design: dose 2.5 mg/kg, route intravenous; conditions: in vivo
COLO 205 [47] = experiment: Inhibition of proliferation of human Colo205 cells; type: functional, cell-based
[48] = Inhibition of proliferation of human H292 cells; type: functional, cell-based; conditions: NCI-H292
NIH3T3 [49] = experiment: Inhibition of IGF1-stimulated p70S6K phosphorylation in mouse 3T3 cells; type: functional, cell-based
[50] = target: Vascular endothelial growth factor receptor 2 (Homo sapiens, UniProt P35968); experiment: Inhibition of KDR at 100 uM
[51] = target: Mitogen-activated protein kinase 10 (Homo sapiens, UniProt P53779); experiment: Inhibition of JNK3
COLO 205 [52] = experiment: Induction of DNA fragmentation in human Colo205 cells at 10 uM relative to control; type: functional
NIH3T3 [53] = experiment: Inhibition of IGF1-stimulated purified ERK1 phosphorylation in mouse 3T3 cells; type: functional, cell-based
NCI-H358 [54] = experiment: Induction of DNA fragmentation in human H358 cells at 10 uM relative to control; type: functional
Mus musculus [55] = experiment: Increase in glucose level in CD1 mouse at 100 mg/kg, po 2 hrs after glucose challenge; type: functional
[56] = Induction of DNA fragmentation in human Colo699 cells at 10 uM relative to control; type: functional
[57] = target: Dual specificity mitogen-activated protein kinase kinase 1 (Homo sapiens, UniProt Q02750); experiment: Inhibition of MEK1
[58] = target: Receptor-type tyrosine-protein kinase FLT3 (Homo sapiens, UniProt P36888); experiment: Inhibition of FLT3
[59] = Clearance in Beagle dog at 2.5 mg/kg, iv; type: ADME, organism-based, Canis lupus familiaris; design: dose 2.5 mg/kg, route intravenous; conditions: in vivo
[60] = target: Ribosomal protein S6 kinase beta-1 (Homo sapiens, UniProt P23443); experiment: Inhibition of P70S6K
[61] = target: Proto-oncogene tyrosine-protein kinase Src (Homo sapiens, UniProt P12931); experiment: Inhibition of SRC
[62] = target: RAC-alpha serine/threonine-protein kinase (Homo sapiens, UniProt P31749); experiment: Inhibition of AKT1
[63] = target: Casein kinase II subunit alpha (Homo sapiens, UniProt P68400); experiment: Inhibition of CK2
Aurora kinase A = Aurora kinase A (Homo sapiens, UniProt O14965); experiment: Inhibition of AuroraA
[64] = target: RAF proto-oncogene serine/threonine-protein kinase (Homo sapiens, UniProt P04049); experiment: Inhibition of cRaf
[65] = Volume of distribution at steady state in Sprague-Dawley rat at 1 mg/kg, iv; type: ADME, organism-based; design: dose 1 mg/kg, route intravenous; conditions: in vivo, read-out: Vdss
[66] = Inhibition of CDK2/cyclin A
[67] = Plasma concentration in CD1 mouse at 25 mg/kg, po after 24 hrs; type: ADME, organism-based; design: dose 25 mg/kg, route oral
[68] = Cmax in Sprague-Dawley rat at 50 mg/kg, po; type: ADME, organism-based; design: dose 50 mg/kg, route oral; conditions: in vivo
NIH3T3 [69] = experiment: Inhibition of IGF1-stimulated purified AKT phosphorylation in mouse 3T3 cells; type: functional, cell-based
[70] = target: T1, Insulin-like growth factor 1 receptor; experiment: Inhibition of human recombinant full length IGF1R
[71] = Half life in CD1 mouse at 5 mg/kg, iv; type: ADME, organism-based; design: dose 5 mg/kg, route intravenous; conditions: in vivo
[72] = Inhibition of CDK1/cyclin B

T1 sequence (P08069 31-736 limits assumed): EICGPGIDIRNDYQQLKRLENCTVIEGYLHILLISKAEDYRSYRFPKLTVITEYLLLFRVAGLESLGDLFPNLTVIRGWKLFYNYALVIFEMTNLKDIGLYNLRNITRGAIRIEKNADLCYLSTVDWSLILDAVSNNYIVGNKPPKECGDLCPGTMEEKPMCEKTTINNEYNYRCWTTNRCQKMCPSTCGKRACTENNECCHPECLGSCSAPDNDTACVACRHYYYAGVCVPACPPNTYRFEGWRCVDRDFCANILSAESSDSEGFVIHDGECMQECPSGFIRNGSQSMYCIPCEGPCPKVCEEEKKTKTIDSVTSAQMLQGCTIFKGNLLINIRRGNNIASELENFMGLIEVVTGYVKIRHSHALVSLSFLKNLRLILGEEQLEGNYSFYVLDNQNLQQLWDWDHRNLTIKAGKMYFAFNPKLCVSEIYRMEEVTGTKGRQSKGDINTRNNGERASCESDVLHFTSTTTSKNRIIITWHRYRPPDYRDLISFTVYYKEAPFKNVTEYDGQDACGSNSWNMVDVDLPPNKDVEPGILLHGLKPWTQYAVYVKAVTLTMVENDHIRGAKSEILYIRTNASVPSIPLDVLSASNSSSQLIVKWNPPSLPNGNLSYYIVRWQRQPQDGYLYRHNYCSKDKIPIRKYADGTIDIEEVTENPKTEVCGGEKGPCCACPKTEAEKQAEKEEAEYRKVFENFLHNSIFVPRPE
T1 sequence (P08069 741-1367 limits assumed): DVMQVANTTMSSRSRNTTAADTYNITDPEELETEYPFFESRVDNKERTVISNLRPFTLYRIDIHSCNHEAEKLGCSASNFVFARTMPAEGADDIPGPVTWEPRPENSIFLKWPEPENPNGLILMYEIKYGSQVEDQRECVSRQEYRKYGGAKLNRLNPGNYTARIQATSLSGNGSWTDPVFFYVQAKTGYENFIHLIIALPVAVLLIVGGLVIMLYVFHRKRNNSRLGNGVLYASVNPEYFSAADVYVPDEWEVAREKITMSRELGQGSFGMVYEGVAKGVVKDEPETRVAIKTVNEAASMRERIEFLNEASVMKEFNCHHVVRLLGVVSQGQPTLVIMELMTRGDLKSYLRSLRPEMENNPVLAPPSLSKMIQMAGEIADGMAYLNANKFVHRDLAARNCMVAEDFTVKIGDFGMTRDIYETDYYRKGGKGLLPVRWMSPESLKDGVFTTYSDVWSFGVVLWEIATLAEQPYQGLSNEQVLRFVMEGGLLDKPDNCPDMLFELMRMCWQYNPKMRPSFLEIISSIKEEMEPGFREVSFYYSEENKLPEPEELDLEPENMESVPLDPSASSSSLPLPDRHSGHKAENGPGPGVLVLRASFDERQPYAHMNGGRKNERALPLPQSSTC
Cytochrome P450 3A4, sequence (P08684 whole entry): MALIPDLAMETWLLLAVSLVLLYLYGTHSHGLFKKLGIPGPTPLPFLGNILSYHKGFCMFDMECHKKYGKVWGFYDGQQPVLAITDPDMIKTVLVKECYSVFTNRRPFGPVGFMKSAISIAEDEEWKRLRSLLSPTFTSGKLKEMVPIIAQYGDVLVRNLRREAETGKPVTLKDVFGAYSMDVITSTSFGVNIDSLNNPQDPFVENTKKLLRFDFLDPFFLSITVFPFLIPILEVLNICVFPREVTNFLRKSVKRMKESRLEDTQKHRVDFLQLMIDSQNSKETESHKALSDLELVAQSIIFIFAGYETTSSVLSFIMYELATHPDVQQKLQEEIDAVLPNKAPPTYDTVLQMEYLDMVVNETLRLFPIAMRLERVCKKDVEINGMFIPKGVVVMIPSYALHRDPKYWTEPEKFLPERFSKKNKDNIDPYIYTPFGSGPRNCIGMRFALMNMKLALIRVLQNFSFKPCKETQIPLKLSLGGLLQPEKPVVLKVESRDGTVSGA
Tyrosine-protein kinase ABL1, sequence (P00519 whole entry): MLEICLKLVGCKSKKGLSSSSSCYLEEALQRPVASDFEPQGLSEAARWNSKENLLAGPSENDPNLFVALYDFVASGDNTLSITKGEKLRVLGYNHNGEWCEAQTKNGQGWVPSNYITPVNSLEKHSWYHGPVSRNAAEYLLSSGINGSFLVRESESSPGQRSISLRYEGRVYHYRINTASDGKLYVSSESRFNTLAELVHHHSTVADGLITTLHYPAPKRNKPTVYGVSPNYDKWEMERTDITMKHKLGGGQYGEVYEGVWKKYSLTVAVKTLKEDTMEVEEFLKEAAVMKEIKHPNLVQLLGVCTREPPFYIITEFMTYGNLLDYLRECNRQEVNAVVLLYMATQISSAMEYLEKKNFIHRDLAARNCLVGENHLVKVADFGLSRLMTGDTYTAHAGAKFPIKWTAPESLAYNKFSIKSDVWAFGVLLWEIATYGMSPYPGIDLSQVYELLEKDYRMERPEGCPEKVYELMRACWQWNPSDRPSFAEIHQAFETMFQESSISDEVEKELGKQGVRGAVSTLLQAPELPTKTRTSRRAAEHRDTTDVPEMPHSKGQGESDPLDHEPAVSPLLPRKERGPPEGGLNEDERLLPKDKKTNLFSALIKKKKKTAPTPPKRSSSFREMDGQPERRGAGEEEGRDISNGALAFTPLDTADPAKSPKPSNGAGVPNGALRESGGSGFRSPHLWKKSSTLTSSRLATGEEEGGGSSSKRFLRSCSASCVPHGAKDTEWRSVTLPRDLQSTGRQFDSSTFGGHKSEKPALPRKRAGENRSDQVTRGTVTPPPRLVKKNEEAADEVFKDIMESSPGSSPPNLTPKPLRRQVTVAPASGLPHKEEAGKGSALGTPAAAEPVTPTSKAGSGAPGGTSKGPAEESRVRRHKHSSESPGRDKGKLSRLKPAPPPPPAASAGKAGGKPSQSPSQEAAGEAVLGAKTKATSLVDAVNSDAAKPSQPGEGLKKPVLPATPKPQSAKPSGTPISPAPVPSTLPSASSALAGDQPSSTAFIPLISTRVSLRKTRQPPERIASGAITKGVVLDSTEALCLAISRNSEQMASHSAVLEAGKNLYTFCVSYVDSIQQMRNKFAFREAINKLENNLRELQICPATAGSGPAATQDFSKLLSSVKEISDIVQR
Focal adhesion kinase 1, sequence (Q05397 whole entry): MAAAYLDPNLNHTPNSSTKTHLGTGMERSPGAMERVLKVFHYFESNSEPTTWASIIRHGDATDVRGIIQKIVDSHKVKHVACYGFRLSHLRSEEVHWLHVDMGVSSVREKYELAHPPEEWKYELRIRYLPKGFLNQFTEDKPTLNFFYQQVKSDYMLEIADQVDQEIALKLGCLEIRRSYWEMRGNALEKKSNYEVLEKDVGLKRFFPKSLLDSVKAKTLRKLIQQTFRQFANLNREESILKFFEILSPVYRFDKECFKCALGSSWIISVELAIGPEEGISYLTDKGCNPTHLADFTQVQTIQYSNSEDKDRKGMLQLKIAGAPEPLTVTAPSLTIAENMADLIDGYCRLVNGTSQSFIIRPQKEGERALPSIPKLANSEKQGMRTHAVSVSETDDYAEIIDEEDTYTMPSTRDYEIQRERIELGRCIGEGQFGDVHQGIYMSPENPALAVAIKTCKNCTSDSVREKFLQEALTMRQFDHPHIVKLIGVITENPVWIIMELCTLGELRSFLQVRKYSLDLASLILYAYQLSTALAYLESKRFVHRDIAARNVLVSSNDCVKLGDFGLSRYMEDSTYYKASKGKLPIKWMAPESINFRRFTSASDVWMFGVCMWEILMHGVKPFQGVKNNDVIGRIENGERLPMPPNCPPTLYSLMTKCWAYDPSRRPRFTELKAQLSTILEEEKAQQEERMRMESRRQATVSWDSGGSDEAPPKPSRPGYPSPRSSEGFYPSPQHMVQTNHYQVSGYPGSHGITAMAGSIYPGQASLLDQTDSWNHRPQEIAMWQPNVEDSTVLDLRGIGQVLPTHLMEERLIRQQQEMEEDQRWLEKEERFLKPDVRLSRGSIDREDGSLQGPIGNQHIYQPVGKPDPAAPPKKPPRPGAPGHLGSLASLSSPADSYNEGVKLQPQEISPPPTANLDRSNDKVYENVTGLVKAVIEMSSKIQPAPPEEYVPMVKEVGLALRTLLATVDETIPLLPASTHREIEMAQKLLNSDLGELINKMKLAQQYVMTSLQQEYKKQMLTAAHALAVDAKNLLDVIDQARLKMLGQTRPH
Tyrosine-protein kinase Fyn, sequence (P06241 whole entry): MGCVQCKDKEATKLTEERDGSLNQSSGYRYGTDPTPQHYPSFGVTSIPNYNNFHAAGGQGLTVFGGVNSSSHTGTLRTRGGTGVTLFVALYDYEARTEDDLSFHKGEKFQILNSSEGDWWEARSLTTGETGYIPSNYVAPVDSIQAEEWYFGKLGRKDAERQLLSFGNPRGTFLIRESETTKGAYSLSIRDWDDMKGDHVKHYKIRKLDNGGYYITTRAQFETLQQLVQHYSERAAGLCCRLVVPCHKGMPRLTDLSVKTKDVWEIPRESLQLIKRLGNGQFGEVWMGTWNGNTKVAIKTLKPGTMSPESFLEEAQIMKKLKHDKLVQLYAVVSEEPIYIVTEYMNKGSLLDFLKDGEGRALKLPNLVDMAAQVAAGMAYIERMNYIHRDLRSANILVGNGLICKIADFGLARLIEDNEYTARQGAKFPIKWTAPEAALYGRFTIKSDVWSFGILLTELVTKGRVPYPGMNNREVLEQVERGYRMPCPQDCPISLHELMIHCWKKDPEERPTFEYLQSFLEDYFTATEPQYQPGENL
Casein kinase II subunit alpha, sequence (P68400 whole entry): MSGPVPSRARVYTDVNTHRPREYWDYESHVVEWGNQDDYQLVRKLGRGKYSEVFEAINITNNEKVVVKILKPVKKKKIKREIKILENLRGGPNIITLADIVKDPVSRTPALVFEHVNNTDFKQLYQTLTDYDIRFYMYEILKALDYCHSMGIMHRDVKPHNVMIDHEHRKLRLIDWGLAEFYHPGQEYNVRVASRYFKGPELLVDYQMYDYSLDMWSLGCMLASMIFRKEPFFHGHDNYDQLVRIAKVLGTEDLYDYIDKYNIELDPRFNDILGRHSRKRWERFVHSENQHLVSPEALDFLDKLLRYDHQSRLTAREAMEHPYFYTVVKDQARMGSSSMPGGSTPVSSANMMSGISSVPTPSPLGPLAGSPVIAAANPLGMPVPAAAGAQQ

Nc1nccn2c1c(-c1ccc3ccc(-c4ccccc4)nc3c1)nc2[C@H]1C[C@@H](CN2CCC2)C1
IC50 [1]: > 10 µM
IC50 (Focal adhesion kinase 1): > 10 µM
AUC(0-inf) [2]: 37400 ng·h/mL
Activity (Mus musculus [3]): 18%
IC50 [4]: 0.69 µM
IC50 [5]: 5.9 µM
Cmax [6]: 170 nM
IC50 (HT-29 [7]): 1.26 µM
IC50 [8]: > 10 µM
bioavailability [9]: 94%
clearance [10]: 10 mL/min/kg
IC50 [11]: > 10 µM
IC50 [12]: > 10 µM
AUC(0-inf) [13]: 25600 ng·h/mL
Activity [14]: 4
inhibition in vivo at 75 mg/kg (NIH3T3 [15]): > 100%
IC50 (NIH3T3 [16]): 0.05 µM
IC50 (NCI-H358 [17]): 2.98 µM
IC50 (NIH3T3 [18]): 0.05 µM
IC50 [19]: 0.27 µM
concentration at 24 h [20]: 90 nM
concentration at 24 h [21]: 900 nM
IC50 [22]: > 10 µM
IC50 [23]: > 10 µM
IC50 [24]: > 5 µM
Cmax [25]: 3400 nM
IC50 (Cytochrome P450 3A4): > 20 µM
Activity (Mus musculus [26]): 75%
Activity (HT-29 [27]): 46
inhibition in vivo at 25 mg/kg (NIH3T3 [28]): 92%
Activity [29]: Dose-dependent effect
IC50 (Insulin receptor): 0.076 µM
IC50 [30]: > 10 µM
Activity (Mus musculus [31]): 14.7 ng/mL
clearance [32]: 24 mL/min/kg
IC50 [33]: > 10 µM
Vd [34]: 50 L/kg
Activity [35]: 51
Activity (Mus musculus [36]): -2.9%
bioavailability [37]: 38%
Vd [38]: 10 L/kg
Activity (Mus musculus [39]): 13.1 ng/mL
IC50 [40]: 0.02 µM
bioavailability [41]: 100%
half-life [42]: 19.9 h
AUC(0-inf) [43]: 3010 ng·h/mL
Activity (Mus musculus [44]): 27 ng/mL
IC50 [45]: > 10 µM
half-life [46]: 19 h
IC50 (COLO 205 [47]): 0.93 µM
IC50 [48]: 1.95 µM
Activity (NIH3T3 [49]): Dose-dependent effect
IC50 [50]: 4.3 µM
IC50 [51]: > 10 µM
Activity (COLO 205 [52]): 0.8
Activity (NIH3T3 [53]): Dose-dependent effect
Activity (NCI-H358 [54]): 2.7
Activity (Mus musculus [55]): 44%
Activity [56]: 16
IC50 [57]: > 10 µM
IC50 [58]: > 10 µM
clearance [59]: 30 mL/min/kg
IC50 [60]: > 10 µM
IC50 [61]: > 10 µM
IC50 [62]: > 10 µM
IC50 [63]: > 10 µM
IC50 (Aurora kinase A): > 10 µM
IC50 [64]: > 10 µM
Vd [65]: 14 L/kg
IC50 [66]: > 10 µM
concentration at 24 h [67]: 400 nM
Cmax [68]: 1600 nM
Activity (NIH3T3 [69]): Dose-dependent effect
IC50 [70]: 0.035 µM
half-life [71]: 5.1 h
IC50 [72]: > 10 µM

Nc1nccn2c(C3CCC3)nc(-c3ccc4cccnc4c3)c12
IC50 [40]: > 10 µM

Nc1nccn2c1c(-c1ccc3ccc(-c4ccccc4)nc3c1)nc2[C@H]1C[C@@H](CN2CCOCC2)C1
IC50 (Cytochrome P450 3A4): > 20 µM

Nc1nccn2c1c(-c1ccc3ccc(-c4ccccc4)nc3c1)nc2[C@H]1C[C@H](CN2CCOCC2)C1
IC50 (Cytochrome P450 3A4): > 20 µM

Source: ChEMBL document CHEMBL1143953, “Novel 2-phenylquinolin-7-yl-derived imidazo[1,5-a]pyrazines as potent insulin-like growth factor-I receptor (IGF-IR) inhibitors” (Bioorg Med Chem, 2008)
